Reference: patent EP4741389A1, “KAT6 INHIBITOR” (Shanghai Qilu Pharmaceutical Research and Development …, priority 2023, dated 2025)

Assays:
[1] = test system: ZR-75-1 cells; assay: ZR-75-1 cell proliferation assay (CellTiter-Glo); assay type: cell-based; details: Homo sapiens, ZR-75-1, 240 h, total culture period of 10 days, read-out: ZR-75-1 Proliferation Inhibition IC50
Experimental: II. ZR-75-1 cell proliferation assay
• 1. ZR-75-1 cells were seeded in 96-well plates and cultured overnight in an incubator at 37°C & 5% CO2. • 2. Compounds were diluted using culture medium and added to the 96-well plates. The plates were placed back into the incubator for continued culture. Every 5 days, the cells were trypsinized, counted, and re-seeded. After the cells had fully adhered, compounds were added again for incubation, for a total culture period of 10 days. • 3. After the culture period, 60 µL of CellTiter-Glo reagent (Promega, G7573) was added to each well. The plates were protected from light and shaken for 2 minutes to lyse the cells, followed by further incubation at room temperature, protected from light, for 30 minutes. • 4. Luminescence signals were read using a BMG PHERAstar FSX. IC50 values were calculated by nonlinear regression using a four-parameter logistic equation in GraphPad Prism 8 software.

[2] = target: T1, KAT6B (Homo sapiens, UniProt Q8WYB5); assay: KATs acetyltransferase enzyme activity assay (TR-FRET), KAT6B; assay type: biochemical; details: Biotin-H3 (1-21) and AcCOA, 90 minutes at room temperature
T1 construct: purchased Active Motif 81224
Experimental: (§1) I. KATs acetyltransferase enzyme activity assay
(§2) • 1. The inhibitory effect of compounds on the acetyltransferase activity of KATs was evaluated using the Time-Resolved Fluorescence Resonance Energy Transfer (TR-FRET) assay. The assay was conducted in 384-well plates using Tris-HCl buffer. • 2. Compounds were diluted in DMSO and transferred to 384-well plates. Enzyme solutions (KAT6: active motif (kit), 81223; KAT6B: active motif, 81224; KAT5: SignalChem, K314-380G; KAT7: ICE, S2210F-H21HF; KAT8: Active motif, 81225) were added and the mixture was incubated at room temperature for 15 minutes. • 3. Subsequently, 2.5 µL of a mixture containing KAT6A/KAT6B: Biotin-H3 (1-21, Genscript, C6829GL060) or KAT5/7/8: Bio-H4 (1-25, Genscript, C736BGL100) AcCOA (Sigma, A2056) was added, and the reaction proceeded at room temperature for 90 minutes. • 4. After the reaction, a detection mixture containing Europium-anti-acetyl-Histone H4 Lysine (H4Kac pan) Antibody (Perkin Elmer, TRF0412) and LANCE Ultra ULight™-Streptavidin in LANCE™ Detection buffer (10x) (Perkin Elmer, CR97-100) was added, followed by incubation at room temperature for 60 minutes. • 5. HTRF signals were measured using a BMG PHERAstar FSX (Ratio: 665nm/620nm). IC50 values were calculated by nonlinear regression using a four-parameter logistic equation in GraphPad Prism 8 software.

[3] = target: T2, KAT6A (Homo sapiens, UniProt Q92794); assay: KATs acetyltransferase enzyme activity assay (TR-FRET), KAT6A; assay type: biochemical; details: Biotin-H3 (1-21) and AcCOA, 90 minutes at room temperature
T2 construct: purchased Active Motif 81223
Experimental: as §1
as §2, with “Enzyme solutions (KAT6: active motif (kit), 81223; KAT6B: active motif, 81224; KAT5: SignalChem, K314-380G; KAT7: ICE, S2210F-H21HF; KAT8: Active motif, 81225) were added and the mixture was incubated at room temperature for 15 minutes. • 3.” left out, “HTRF signals were measured using a BMG PHERAstar FSX (Ratio: 665nm/620nm).” left out

[4] = test system: ZR-75-1 H3K23 Acetylation; assay: Histone H3 acetylation assay (H3K23 acetylation in ZR-75-1 cells); assay type: cell-based; details: Homo sapiens, 72 hours incubation, Odyssey CLx fluorescence, read-out: ZR-75-1 H3K23 Acetylation Inhibition IC50
Experimental: III. Histone H3 acetylation assay
• 1. ZR-75-1 cells were seeded at 5000 cells/40 µL per well in 384-well plates and cultured overnight in an incubator at 37°C & 5% CO2. • 2. 40 nL of serially diluted compounds were added to the 384-well plates, followed by further incubation for 72 hours. • 3. The supernatant was discarded, and 8 w/v% paraformaldehyde (final concentration was 4 w/v%) was added directly to the wells to fix the cells at room temperature. • 4. After washing twice with PBS, a permeabilization agent (40 µL of methanol) was added and incubated for 10 minutes to permeabilize the cell membranes. • 5. After washing twice with PBS, a blocking buffer was added and incubated at room temperature for 1 hour for blocking. • 6. The blocking buffer was discarded, and 20 µL of primary antibodies (recombinant Anti-Histone H3 (acetyl K23) antibody and Anti-Histone H4 antibody) diluted in blocking buffer (1:1000 by volume dilution) were added, followed by incubation at 4°C overnight. • 7. After washing three times with PBST (0.05 vol% Tween-20 in PBS), 20 µL of fluorescent secondary antibodies (IRDye 680RD Goat anti-MOUSE, Licor, 926-68070; IRDye 800CW Goat anti-Rabbit, Licor, 926-32211) diluted in blocking buffer (1:2000 by volume dilution) were added, followed by incubation at room temperature, protected from light, for 1 hour. Then, the plates were washed three times with PBST. • 8. Scanning was performed using an Odyssey CLx, and the fluorescence signal value for each well was quantified. IC50 values were calculated by nonlinear regression using a four-parameter logistic equation in GraphPad Prism 8 software.

T2 sequence (Q92794 488-778 limits assumed): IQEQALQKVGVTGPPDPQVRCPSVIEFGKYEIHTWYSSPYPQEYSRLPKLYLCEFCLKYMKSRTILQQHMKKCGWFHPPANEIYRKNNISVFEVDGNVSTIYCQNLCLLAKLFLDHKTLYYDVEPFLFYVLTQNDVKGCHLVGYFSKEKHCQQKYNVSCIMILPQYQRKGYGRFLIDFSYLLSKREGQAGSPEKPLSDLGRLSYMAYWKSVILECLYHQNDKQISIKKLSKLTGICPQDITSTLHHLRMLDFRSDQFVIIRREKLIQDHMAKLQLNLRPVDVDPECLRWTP
T1 sequence (Q8WYB5 whole entry): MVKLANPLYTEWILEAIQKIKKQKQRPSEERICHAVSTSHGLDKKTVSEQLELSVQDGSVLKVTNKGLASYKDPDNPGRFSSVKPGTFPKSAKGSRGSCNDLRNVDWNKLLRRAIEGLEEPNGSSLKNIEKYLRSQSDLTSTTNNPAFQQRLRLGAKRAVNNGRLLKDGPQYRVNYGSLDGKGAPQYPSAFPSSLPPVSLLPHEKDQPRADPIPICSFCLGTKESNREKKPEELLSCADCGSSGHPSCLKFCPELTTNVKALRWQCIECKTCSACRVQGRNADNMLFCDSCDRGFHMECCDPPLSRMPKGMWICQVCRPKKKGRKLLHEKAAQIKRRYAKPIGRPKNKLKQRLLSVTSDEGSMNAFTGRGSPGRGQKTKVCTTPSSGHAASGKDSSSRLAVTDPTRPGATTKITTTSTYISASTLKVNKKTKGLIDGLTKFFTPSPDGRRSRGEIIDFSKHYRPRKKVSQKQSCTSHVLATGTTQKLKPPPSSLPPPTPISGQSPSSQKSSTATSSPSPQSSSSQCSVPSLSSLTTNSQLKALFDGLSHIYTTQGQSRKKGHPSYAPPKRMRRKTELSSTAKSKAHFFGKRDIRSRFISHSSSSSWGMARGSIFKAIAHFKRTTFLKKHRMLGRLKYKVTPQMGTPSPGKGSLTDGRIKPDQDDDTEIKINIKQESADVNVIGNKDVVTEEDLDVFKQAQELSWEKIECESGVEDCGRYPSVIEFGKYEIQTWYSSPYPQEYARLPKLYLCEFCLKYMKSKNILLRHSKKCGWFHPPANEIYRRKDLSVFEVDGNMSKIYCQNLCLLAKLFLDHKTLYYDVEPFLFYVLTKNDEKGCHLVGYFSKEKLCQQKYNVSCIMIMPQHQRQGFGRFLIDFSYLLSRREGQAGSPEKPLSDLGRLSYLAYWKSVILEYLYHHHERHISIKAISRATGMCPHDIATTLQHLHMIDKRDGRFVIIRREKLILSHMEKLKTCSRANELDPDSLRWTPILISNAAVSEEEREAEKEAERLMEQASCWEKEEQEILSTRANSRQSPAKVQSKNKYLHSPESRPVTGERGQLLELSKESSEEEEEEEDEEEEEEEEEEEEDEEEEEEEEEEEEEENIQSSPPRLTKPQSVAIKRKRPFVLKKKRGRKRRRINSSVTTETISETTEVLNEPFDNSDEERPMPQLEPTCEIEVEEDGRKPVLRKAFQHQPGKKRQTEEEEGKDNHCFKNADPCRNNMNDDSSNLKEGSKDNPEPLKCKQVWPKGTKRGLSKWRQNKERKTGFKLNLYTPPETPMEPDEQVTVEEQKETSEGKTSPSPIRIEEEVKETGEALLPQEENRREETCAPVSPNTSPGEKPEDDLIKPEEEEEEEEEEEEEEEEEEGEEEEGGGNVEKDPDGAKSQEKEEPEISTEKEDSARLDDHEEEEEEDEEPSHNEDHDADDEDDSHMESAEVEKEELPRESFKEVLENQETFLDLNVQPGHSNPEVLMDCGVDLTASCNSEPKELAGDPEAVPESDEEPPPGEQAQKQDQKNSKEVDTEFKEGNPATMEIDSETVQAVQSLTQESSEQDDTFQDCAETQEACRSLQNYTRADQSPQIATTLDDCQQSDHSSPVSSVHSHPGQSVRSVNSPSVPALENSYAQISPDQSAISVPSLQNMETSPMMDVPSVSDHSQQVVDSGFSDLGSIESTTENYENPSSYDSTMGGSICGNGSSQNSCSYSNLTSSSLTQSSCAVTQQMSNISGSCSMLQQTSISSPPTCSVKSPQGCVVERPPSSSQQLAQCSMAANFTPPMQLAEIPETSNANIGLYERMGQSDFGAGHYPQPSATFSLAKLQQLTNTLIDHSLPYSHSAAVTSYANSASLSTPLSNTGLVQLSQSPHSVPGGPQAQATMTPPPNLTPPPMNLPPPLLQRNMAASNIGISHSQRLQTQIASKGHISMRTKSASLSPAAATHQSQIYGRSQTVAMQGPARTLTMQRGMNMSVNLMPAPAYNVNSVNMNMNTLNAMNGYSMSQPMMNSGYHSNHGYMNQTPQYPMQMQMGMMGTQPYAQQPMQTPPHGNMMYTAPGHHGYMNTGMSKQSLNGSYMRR

SMILES	IC50 [2] [nM]	IC50 [3] [nM]	IC50 [4] [nM]	IC50 [1] [nM]
CCOc1cc2c(NS(=O)(=O)c3c(OC)ccc4c3OCCCO4)noc2cc1Cn1cccn1 [Compound 18, N-(6-((1H-Pyrazol-1-yl)methyl)-5-ethoxybenzo[d]isoxazol-3-yl)-7-methoxy-3,4-dihydro-2H-benzo [b] [1,4] dioxepine-6-sulfonamide]	–	–	–	22.1
COc1cc2c(cc1S(=O)(=O)Nc1noc3cc(Cn4cccn4)cc(OC)c13)COCCO2 [Compound 9, N-(6-((1H-Pyrazol-1-yl)methyl)-4-methoxybenzo[d]isoxazol-3-yl)-8-methoxy-2,3-dihyd ro-5H-benzo[e][1,4]dioxepine-7-sulfonamide]	9.5	1.6	2.1	–
COc1ccc2c(c1S(=O)(=O)Nc1noc3cc(Oc4ccccn4)cc(OC)c13)OC[C@@H]1C[C@H]21 [Compound 48, (1aR,7bS)-5-Methoxy-N-(4-methoxy-6-(pyridin-2-yloxy)benzo[d]isoxazol-3-yl)-1,1a,2,7 b-tetrahydrocyclopropa [c] chromene-4-sulfonamide]	15.6	1.7	17.9	–
COc1ccc2c(c1S(=O)(=O)Nc1noc3cc(Cn4cccn4)c(C)cc13)OCCCO2 [Compound 17, N-(6-((1H-Pyrazol-1-yl)methyl)-5-methylbenzo[d]isoxazol-3-yl)-7-methoxy-3,4-dihydro-2H-benzo [b] [1,4] dioxepine-6-sulfonamide]	–	–	–	3.7
COc1ccc2c(c1S(=O)(=O)Nc1noc3cc(Cn4cccn4)cc(OC)c13)OC1CC21 (stereo not shown) [Compound 44, 4-Methoxy-N-[4-methoxy-6-(pyrazol-1-ylmethyl)-1,2-benzoxazol-3-yl]-la,6b-dihydro-1 H-cyclopropa[b]benzofuran-3-sulfonamide]	8.6	1.7	–	0.3
[2H]C([2H])([2H])Oc1cc(Cn2cccn2)cc2onc(NS(=O)(=O)c3c(OC)ccc4c3OC[C@@H]3C[C@H]43)c12 [Compound 45, (1aR,7bS)-N-(6-((1H-Pyrazol-1-yl)methyl)-4-(methoxy-d3)benzo[d]isoxazol-3-yl)-5-met hoxy-1,1a,2,7b-tetrahydrocyclopropa[c]chromene-4-sulfonamide]	1.4	0.6	–	0.04
COc1ccc2c(c1S(=O)(=O)Nc1noc3cc(Cn4cccn4)c(C)c(OC)c13)OCC1CC21 (stereo not shown) [Compound 24, N-(6-((1H-Pyrazol-1-yl)methyl)-4-methoxy-5-methylbenzo[d]isoxazol-3-yl)-5-methoxy-1,1a,2,7b-tetrahydrocyclopropa[c]chromene-4-sulfonamide]	34.4	3.1	–	–

Continued by falling IC50 [2], values first:

IC50 [2] [nM]	IC50 [3] [nM]	IC50 [4] [nM]	SMILES	IC50 [1] [nM]
80.3	4.7	–	CCc1c(Cn2cccn2)cc2onc(NS(=O)(=O)c3c(OC)ccc4c3OCCCO4)c2c1OC [Compound 26, N-(6-((1H-Pyrazol-1-yl)methyl)-5-ethyl-4-methoxybenzo[d]isoxazol-3-yl)-7-methoxy-3,4-dihydro-2H-benzo[b][1,4]dioxepine-6-sulfonamide]	–
70.3	5.9	–	COc1ccc2c(c1S(=O)(=O)Nc1noc3cc(Cn4cccn4)c(C)c(OC)c13)OCC21CC1 [Compound 25, N-(6-((1H-Pyrazol-1-yl)methyl)-4-methoxy-5-methylbenzo[d]isoxazol-3-yl)-6-methoxy-2H-spiro[benzofuran-3,1'-cyclopropane]-7-sulfonamide]	–
51.6	6.8	6.5	COc1ccc2c(c1S(=O)(=O)Nc1noc3cc(Cn4cccn4)cc(OC)c13)OC1CC1O2 (stereo not shown) [Compound 50, N-(6-((1H-Pyrazol-1-yl)methyl)-4-methoxybenzo[d]isoxazol-3-yl)-4-methoxy-1a,7a-dihydro-1H-benzo[b]cyclopropa[e][1,4]dioxine-3-sulfonamide]	–
46.8	2.5	12.7	COc1ccc2c(c1S(=O)(=O)Nc1noc3cc(Cn4cccn4)cc(OC)c13)OCC(F)(F)CO2 [Compound 11, N-(6-((1H-Pyrazol-1-yl)methyl)-4-methoxybenzo[d]isoxazol-3-yl)-3,3-difluoro-7-methoxy-3,4-dihydro-2H-benzo[b] [1,4]dioxepine-6-sulfonamide]	–
33.8	5.4	–	[2H]C([2H])([2H])Oc1cc(Cn2cccn2)cc2onc(NS(=O)(=O)c3c(OC)ccc4c3OCCCO4)c12 [Compound 46, 7-Methoxy-N-[6-(pyrazol-1-ylmethyl)-4-(trideuteriomethoxy)-1,2-benzoxazol-3-yl]-3,4-dihydro-2H-1,5-benzodioxepine-6-sulfonamide]	1
28.9	3.7	–	[2H]C([2H])(c1cc(OC)c2c(NS(=O)(=O)c3c(OC)ccc4c3OCCCO4)noc2c1)n1cccn1 [Compound 43, N-(6-((1H-Pyrazol-1-yl)methyl-d2)-4-methoxybenzo[d]isoxazol-3-yl)-7-methoxy-3,4-di hydro-2H-benzo[b][1,4]dioxepine-6-sulfonamide]	1
15	2	–	COc1cc2c(cc1S(=O)(=O)Nc1noc3cc(Cn4cccn4)cc(OC)c13)C1(CC1)CO2 [Compound 4, N-(6-((1H-Pyrazol-1-yl)methyl)-4-methoxybenzo[d]isoxazol-3-yl)-6-methoxy-2H-spiro[benzofuran-3,1'-cyclopropane]-5-sulfonamide]	–
7.3	1.5	–	COc1ccc2c(c1S(=O)(=O)Nc1noc3cc(Cn4cccn4)c4c(c13)OCCC4)OCCCO2 [Compound 22, N-(5-((1H-Pyrazol-1-yl)methyl)-3,4-dihydro-2H-chromeno[8,7-d]isoxazol-9-yl)-7-methoxy-3,4-dihydro-2H-benzo[b][1,4]dioxepine-6-sulfonamide]	0.5
1.6	1.1	–	[2H]C([2H])(c1cc(OC)c2c(NS(=O)(=O)c3c(OC)ccc4c3OC[C@@H]3C[C@H]43)noc2c1)n1cccn1 [Compound 42, (1aR,7bS)-N-(6-((1H-Pyrazol-1-yl)methyl-d2)-4-methoxybenzo[d]isoxazol-3-yl)-5-methoxy-1,1a,2,7b-tetrahydrocyclopropa[c]chromene-4-sulfonamide]	0.1
